Source: US7910623B2, “Synthesis of scabronines and analogues thereof” (Sloan-Kettering Institute for Cancer Research, priority 2008, dated 2011)
Entries after “also recorded” stand apart in the source; their conditions may differ. Where two headings read alike, the source gives them in different places.

Columns and labels:
[1] = tested on: 1321N1 human astroglial cells; settings: cited from earlier work
[2] = tested on: rat pheochromocytoma cells (PC-12); settings: cited from earlier work
1321N1 human glial cells = experiment: Biosynthesis and secretion of neurotrophic factors from 1321N1 cells treated with compound; assay type: cell-based; settings: 30 μM, 48 hours
Procedure: (§1) The 1321N1 human astrocytoma cells were cultured in Dulbecco's modified Eagles's medium (DMEM) supplemented with 2 mM L-Glutamine and 10% fetal bovine serum (FBS). PC-12 cells were grown in F-12K medium supplemented with 15% horse serum and 2.5% FBS. For compound treatment, 1321N1 cells were incubated with compounds 2 and 8 at 30 μM for 48 hours in DMEM medium. The resulting conditioned media from the 1321N1 cells were used to culture PC-12 cell for induction of PC-12 neurite outgrowth. After 3 days incubation, PC-12 cells were washed with phosphate-buffered saline (PBS) and fixed with 4% paraformaldeyde. Neurites were observed under a phase-contrast ECLIPSE TE2000-S Nikon microscope.

PC-12 cells = experiment: Neurite outgrowth of PC-12 cells cultured in compound-conditioned 1321N1 medium; assay type: cell-based, rat; settings: 1321N1 medium conditioned with compound at 30 μM for 48 hours, PC-12 3 days; for neurite outgrowth of PC-12 cells: vs DMSO control
Procedure: as §1
The differentiation of PC-12 cells was scored as follows: cells without neurites were scored 0; cells with neurites as long as one cell body diameter were scored 1; cells with neurites 2-3 times longer than their cell body diameter were scored 2; and cells with neurites that were extremely long or forming a network were scored 3. The mean of differentiation scores were obtained from 200 cells (4 wells) under the phase-contrast microscope. Data are expressed as means±S.E.M (standard error of mean). Values represent the Means±S.E.M. for four wells.

SMILES	production and excretion of nerve growth factor (NGF) [1]	production and excretion of nerve growth factor (NGF) ([1]; listed as scabronine G)	neuronal differentiation of PC-12 cells [2]	biosynthesis and secretion of neurotrophic factors (1321N1 human glial cells)	neurite outgrowth of PC-12 cells compared with compound 2 or purified NGF (50 ng/mL) (PC-12 cells)	neurite outgrowth of PC-12 cells (PC-12 cells)
CC(C)C1=C2[C@H]3CC=C(C=O)CC(=O)[C@]3(C)CC[C@@]2(C(=O)O)CC1 [Compound 1, Scabronine G]	induce the production and excretion of nerve growth factor (NGF)	induces the production and excretion of nerve growth factor (NGF)	dramatic neuronal differentiation	–	–	–
COC(=O)[C@]12CCC(C(C)C)=C1[C@H]1CC=C(C=O)CC(=O)[C@]1(C)CC2 [Compound 2, Scabronine G Methyl Ester]	–	–	dramatic neuronal differentiation	effectively enhanced the biosynthesis and secretion of neurotrophic factors	comparable to those produced by direct exposure of PC-12 cells to purified NGF; also recorded: same degree of neurite outgrowth as that of 50 ng/mL of NGF	significant neurite outgrowth; also recorded: significantly induced neurite outgrowth
COC(=O)[C@]12CCC(C(C)C)=C1[C@H]1CCC(C=O)=CC(=O)[C@]1(C)CC2 [Compound 8]	–	–	–	–	greater activity as evidenced by increased neurite length; also recorded: comparable to those produced by direct exposure of PC-12 cells to purified NGF; also recorded: greater potency than compound 2	significantly induced neurite outgrowth
